Where two headings read alike, the source gives them in different places.
Assays:
Format in all cases: cell-based
[1] = molecular target: T1, rat TRPV1 tyrosine to alanine point mutant at residue 511 (Rattus norvegicus, UniProt O35433, Y511A); test: Patch clamp of capsaicin-insensitive rat TRPV1 point mutant; conditions: data not shown
T1 construct: expressed in transfected cells; host or cells: HEK-293T (inferred from the general methods)

rat TRPV2 (rTRPV2) = molecular target: T2, rat TRPV2 (rTRPV2) (Rattus norvegicus, UniProt Q9WUD2); test: Whole-cell patch clamp of rat TRPV2 expressed in HEK-293T cells; parameters: key to Agonist efficacy: Ø - not activated; conditions: for Increase of agonist-evoked current prior to onset of inhibition: citral 1 mM, n = 10
T2 construct: expressed in transfected cells; host or cells: HEK-293T
T2 sequence (Q9WUD2 1-761): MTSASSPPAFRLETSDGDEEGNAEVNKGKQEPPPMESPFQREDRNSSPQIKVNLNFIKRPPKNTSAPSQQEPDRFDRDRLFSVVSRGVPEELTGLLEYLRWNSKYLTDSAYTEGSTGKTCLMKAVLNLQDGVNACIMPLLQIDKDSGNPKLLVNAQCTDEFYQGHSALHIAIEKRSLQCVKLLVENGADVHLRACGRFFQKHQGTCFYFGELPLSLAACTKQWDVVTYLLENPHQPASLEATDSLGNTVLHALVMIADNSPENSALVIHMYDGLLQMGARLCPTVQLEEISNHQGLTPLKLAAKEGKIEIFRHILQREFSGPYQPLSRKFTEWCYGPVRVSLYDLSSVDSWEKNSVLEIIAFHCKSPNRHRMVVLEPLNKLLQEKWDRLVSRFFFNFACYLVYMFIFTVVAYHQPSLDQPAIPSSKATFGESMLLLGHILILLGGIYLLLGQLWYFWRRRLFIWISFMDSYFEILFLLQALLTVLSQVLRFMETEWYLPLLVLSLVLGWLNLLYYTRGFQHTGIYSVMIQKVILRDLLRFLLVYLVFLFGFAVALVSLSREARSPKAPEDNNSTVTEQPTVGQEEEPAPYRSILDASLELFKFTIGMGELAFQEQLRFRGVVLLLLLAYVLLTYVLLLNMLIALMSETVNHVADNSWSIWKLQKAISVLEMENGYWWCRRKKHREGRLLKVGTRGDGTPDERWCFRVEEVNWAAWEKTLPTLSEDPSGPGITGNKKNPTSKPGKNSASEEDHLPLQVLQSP
Experimental: (§1) Transformed human embryonic kidney-293 (HEK-293T) cells were grown in Dulbecco's modified Eagle's medium (DMEM)+F-12 supplemented with 10% fetal calf serum, and 1% penicillin/streptomycin in 5% CO2 at 37°C. Cells grown to 90% confluence in 35 mm Petri dishes were transiently transfected with plasmid DNA encoding a TRP channel construct (1 µg). Rat TRPV1 (rTRPV1) was cloned into an enhanced green fluorescent protein-containing vector (pTracer-CMV2; Invitrogen, Carlsbad, CA). Chicken TRPV1 (cTRPV1), the chicken rat TRPV1 chimera (crcTRPV1), rat TRPV2 (rTRPV2), mouse TRPV3 (mTRPV3), mouse TRPV4 (mTRPV4), rat TRPM8 (rTRPM8), and rat TRPA1 (rTRPA1), were cloned into pcDNA3 and co-transfected with enhanced green fluorescent protein (0.1 µg) to follow expression. The cTRPV1 and crcTRPV1 clones were kindly provided by Dr. David Julius. Recordings were carried out 24–36 hours after transfection. Cells were split via trypsin EDTA, plated on glass coverslips at 5–10% confluence, and used 2–3 hours later.
(§2) Electrophysiological experiments were performed using the whole-cell patch-clamp technique at room temperature. Modified Ringer's solution with low chloride and nominal calcium contained (in mM): 130 sodium hydroxide, 5 potassium chloride, 1 magnesium chloride, 10 sodium 4-(2-hydroxyethyl)-1-piperazineethanesulfonic acid, 10 2-(N-morpholino)ethanesulfonic acid, and 20 glucose (pH 7.4; 310 milli-osmolar). […] 2 mM calcium chloride was included in the external solution where noted. To activate TRPV1, the modified Ringer's solution was made at pH 5 (low pH solution) and the chloride concentration was kept to a minimum to prevent contamination of the TRPV1 currents with acid-activated chloride currents. For recordings from heterologously expressing cells, the internal pipette solution contained (in mM): 125 cesium-Methanesulfonate, 10 cesium (1.2-bis(o-aminophenoxy)ethane-N,N,N',N'-tetraacetic acid, 8 sodium chloride, 4 magnesium adenosine triphosphate, and 10 HEPES (pH 7.2; 290 mOSM; nominal free calcium concentrations). For TRPA1 and dorsal root ganglion recordings, the internal pipette solution contained (in mM): 110 cesium-Methanesulfonate, 0.5 cesium4BAPTA, 8 sodium chloride, 0.2 calcium chloride, 4 magnesium-ATP, 4 sodium-GTP, and 10 4-(2-hydroxyethyl)-1-piperazineethanesulfonic acid (pH 7.2; 290 mOSM; 100 nM free calcium internal). MaxChelator was used to calculate the free calcium concentration (http://www.stanford.edu/cpatton/maxc.html).
(§3) Recordings were obtained using an Axopatch 200B amplifier, Digidata 1322A analog-to-digital converter, and pClamp 8.01 software (Molecular Devices, Union City, CA). Data were low-pass filtered at 2 kHz and digitized at 5 kHz. Borosilicate glass pipettes (World Precision Instruments, Sarasota, FL) were typically 3 MΩ pipette resistance after fire polishing. Cell capacitance was measured for each cell, and access resistance compensated to ∼80%. Recordings were begun ∼5 minutes after initial rupture to ensure initial steady state conditions. Current-voltage (I-V) relations were obtained using a ramp protocol. Voltage ramps (400 ms) from −100 to +40 or +100 mV were applied every 1–2 seconds and the holding potential was either −70 mV or 0 mV (see Figure Legends). A 40 ms step was added at the beginning and end of the ramp (i.e. at −100 mV, +40 mV or +100 mV). Liquid junction potentials were not corrected.
(§4) The dose response curves were fit with the Hill equation, where [drawing 8] and [A] is the concentration of agonist or blocker, N is the Hill coefficient, and KD is the [A] for Imeasured/Imax = 0.5. The term apparent dissociation constant is used in place of the half concentration of excitation and inhibition. […] Averaged data are presented as mean±standard error (S.E.) throughout. Statistical analysis included paired and unpaired Student's t-test comparisons of the data; p values are reported in the text.

rat TRPM8 (rTRPM8) = rat TRPM8 (rTRPM8) (Rattus norvegicus, UniProt Q8R455); test: Whole-cell patch clamp of rat TRPM8 expressed in HEK-293T cells
rat TRPM8 (rTRPM8), sequence (Q8R455 whole entry): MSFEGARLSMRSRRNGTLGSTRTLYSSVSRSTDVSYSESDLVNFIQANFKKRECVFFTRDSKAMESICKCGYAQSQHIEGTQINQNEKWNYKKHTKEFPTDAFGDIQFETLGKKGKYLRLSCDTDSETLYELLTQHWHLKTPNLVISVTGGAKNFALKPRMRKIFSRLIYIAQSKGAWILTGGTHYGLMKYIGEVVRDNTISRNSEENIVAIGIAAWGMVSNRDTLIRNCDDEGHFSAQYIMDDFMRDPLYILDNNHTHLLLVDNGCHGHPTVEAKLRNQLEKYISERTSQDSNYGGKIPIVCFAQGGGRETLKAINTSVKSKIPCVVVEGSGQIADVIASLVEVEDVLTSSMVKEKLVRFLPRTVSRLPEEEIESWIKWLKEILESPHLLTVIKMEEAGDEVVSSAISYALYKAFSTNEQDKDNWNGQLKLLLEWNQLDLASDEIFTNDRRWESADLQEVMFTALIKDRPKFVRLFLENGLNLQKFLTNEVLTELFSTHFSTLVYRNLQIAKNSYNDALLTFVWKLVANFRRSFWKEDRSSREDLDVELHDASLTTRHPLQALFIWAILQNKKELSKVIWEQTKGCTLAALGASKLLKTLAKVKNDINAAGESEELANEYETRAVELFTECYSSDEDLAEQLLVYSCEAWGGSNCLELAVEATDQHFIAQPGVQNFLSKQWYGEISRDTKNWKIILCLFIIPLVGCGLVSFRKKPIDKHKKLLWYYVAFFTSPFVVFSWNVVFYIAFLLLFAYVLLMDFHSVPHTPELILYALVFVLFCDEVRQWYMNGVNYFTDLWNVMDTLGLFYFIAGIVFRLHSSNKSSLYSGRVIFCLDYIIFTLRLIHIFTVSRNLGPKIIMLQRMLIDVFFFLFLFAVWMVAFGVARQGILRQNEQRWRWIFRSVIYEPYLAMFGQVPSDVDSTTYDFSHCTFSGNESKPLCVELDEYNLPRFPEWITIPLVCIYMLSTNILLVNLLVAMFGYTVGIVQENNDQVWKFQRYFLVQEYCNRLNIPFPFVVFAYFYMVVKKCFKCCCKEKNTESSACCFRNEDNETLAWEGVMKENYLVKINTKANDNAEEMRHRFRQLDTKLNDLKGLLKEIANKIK
Experimental: as §1, §2, §3, §4

T1 sequence (O35433 whole entry Y511A): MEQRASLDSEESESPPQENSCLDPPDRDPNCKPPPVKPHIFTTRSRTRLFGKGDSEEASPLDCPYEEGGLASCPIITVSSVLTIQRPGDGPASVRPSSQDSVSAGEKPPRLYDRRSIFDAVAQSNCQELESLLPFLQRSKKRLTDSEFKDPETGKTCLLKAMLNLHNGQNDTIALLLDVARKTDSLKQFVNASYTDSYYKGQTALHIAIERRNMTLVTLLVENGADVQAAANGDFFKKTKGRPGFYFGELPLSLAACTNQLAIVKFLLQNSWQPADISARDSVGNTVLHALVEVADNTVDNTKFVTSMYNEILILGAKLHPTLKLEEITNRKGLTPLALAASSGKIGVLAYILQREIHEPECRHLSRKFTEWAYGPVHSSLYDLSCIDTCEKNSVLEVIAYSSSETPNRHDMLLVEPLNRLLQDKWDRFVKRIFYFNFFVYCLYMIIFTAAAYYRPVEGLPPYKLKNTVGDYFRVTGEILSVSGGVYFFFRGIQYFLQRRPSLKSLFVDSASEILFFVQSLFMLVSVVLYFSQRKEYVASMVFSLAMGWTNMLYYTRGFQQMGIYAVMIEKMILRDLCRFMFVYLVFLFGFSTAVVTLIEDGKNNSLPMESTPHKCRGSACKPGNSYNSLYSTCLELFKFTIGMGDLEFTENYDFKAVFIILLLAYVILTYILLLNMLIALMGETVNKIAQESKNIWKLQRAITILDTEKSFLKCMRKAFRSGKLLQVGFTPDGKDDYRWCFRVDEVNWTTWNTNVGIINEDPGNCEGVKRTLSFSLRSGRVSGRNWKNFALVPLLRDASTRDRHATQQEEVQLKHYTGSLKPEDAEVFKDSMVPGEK

CC(C)=CCCC(C)=CC=O [citral, 3,7-dimethyl-2,6-octadienal]
Response of capsaicin-insensitive TRPV1 point mutant [1]: remained responsive to citral | Agonist efficacy (rat TRPV2 (rTRPV2)): Ø | Reversibility of citral inhibition of agonist-evoked current (rat TRPV2 (rTRPV2)): essentially irreversible | Increase of agonist-evoked current prior to onset of inhibition (rat TRPV2 (rTRPV2); +100 mV): 2.2±0.2 fold | Increase of agonist-evoked current prior to onset of inhibition (rat TRPV2 (rTRPV2); −100 mV): 2.5±0.4 fold | Hill coefficient (inhibition) (rat TRPV2 (rTRPV2); citral block of 2-aminoethyldiphenyl borate-evoked current): 2.4 | Kd (rat TRPV2 (rTRPV2); read-out: Inhibition KD, app): 534 µM | Hill coefficient (activation) (rat TRPM8 (rTRPM8)): 1.6 | Reversibility of citral inhibition of agonist-evoked current (rat TRPM8 (rTRPM8)): essentially irreversible | Hill coefficient (inhibition) (rat TRPM8 (rTRPM8); +40 mV): 1.7 | Increase in TRPM8 current evoked by menthol after citral washout (rat TRPM8 (rTRPM8); after 60 seconds washout, n = 3): 4±2% | Kd (rat TRPM8 (rTRPM8); citral activation, nominal external calcium, read-out: Activation KD, app): 33.5 µM | Kd (rat TRPM8 (rTRPM8); citral block of menthol (1 mM)-evoked current, +40 mV, read-out: Inhibition KD, app): 188 µM | Kd (rat TRPM8 (rTRPM8); citral block of menthol (1 mM)-evoked current, −40 mV, read-out: Inhibition KD, app): 241 µM | Agonist efficacy Imenthol (30 µM)/Icitral (300 µM) (rat TRPM8 (rTRPM8); fold larger, −40 mV, n = 5): Imenthol (30 µM)/Icitral (300 µM) 74±28 fold larger (n = 5; −40 mV) | Effect of citral addition on agonist-induced current (rat TRPM8 (rTRPM8); menthol-induced, n = 4): not increased | Time for >50% inhibition of peak TRP current in continued presence of citral (rat TRPM8 (rTRPM8); n = 7): ≤ 14 s | Hill coefficient (inhibition) (rat TRPM8 (rTRPM8); −40 mV): 2.0 | Increase of inward ITRPM8 above baseline (rat TRPM8 (rTRPM8); −40 mV): 2 fold

From article PMC2346451 (PLoS ONE, 2008)
